Source: PubChem BioAssay (NCI)
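A five-concentration, 48-hour dose response in 96-well plates underlies each endpoint, interpolated linearly between surrounding concentrations. At the TGI there is no net growth.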 Where a SMILES comes first, the peptide text is derived from it. [ ]: non-standard residue; d: D form. pGlu = O=C1CC[CH](C(=O)O)N1

Key:
Assay in all cases: NCI-60 cell line screen, 48 h
U251 CNS = test system: U251 CNS
NCI-H460 lung = test system: NCI-H460 lung
ACHN renal = test system: ACHN renal
HCT-116 colon = test system: HCT-116 colon
NCI-H23 lung = test system: NCI-H23 lung
SK-OV-3 ovarian = test system: SK-OV-3 ovarian
COLO 205 colon = test system: COLO 205 colon
HOP-62 NSCLC = test system: HOP-62 NSCLC
PC-3 prostate = test system: PC-3 prostate
SK-MEL-5 melanoma = test system: SK-MEL-5 melanoma

| SMILES | TGI (U251 CNS) | TGI (NCI-H460 lung) | TGI (ACHN renal) | TGI (HCT-116 colon) | TGI (NCI-H23 lung) | TGI (SK-OV-3 ovarian) | TGI (COLO 205 colon) | TGI (HOP-62 NSCLC) | TGI (PC-3 prostate) | TGI (SK-MEL-5 melanoma) |
| --- | --- | --- | --- | --- | --- | --- | --- | --- | --- | --- |
| Cc1[nH]c(=O)nc2nc3ccc(Cl)cc3c(NC(C)(CO)CO)c12 | > 100 µM | > 100 µM | > 100 µM | > 100 µM | > 100 µM | > 100 µM | > 100 µM | 61.3 µM | > 100 µM | > 100 µM |
| CC(NC(=O)C(Cc1cnc[nH]1)NC(=O)C1CCC(=O)N1)C(N)=O (stereo not drawn) ([pGlu]-His-Ala-NH2; configuration not given here) | > 100 µM | > 100 µM | > 100 µM | > 100 µM | > 100 µM | > 100 µM | > 100 µM | > 100 µM | > 100 µM | > 100 µM |
| NNC(=O)CCC(NS(=O)(=O)c1ccc(Cl)cc1)C(=O)NN (stereo not given) | > 100 µM | > 100 µM | > 100 µM | > 100 µM | > 100 µM | > 100 µM | > 100 µM | > 100 µM | > 100 µM | > 100 µM |
| CN(C)CCCNc1cnc2cc3ccccc3cc2n1 | > 100 µM | > 100 µM | > 100 µM | 99.3 µM | > 100 µM | > 100 µM | 38.8 µM | > 100 µM | 45.6 µM | 45 µM |
| CCCCC1(N=[N+]=[N-])C(=O)C2C=CC=C3c4ccccc4N(C1=O)C32 (stereo not given) | > 31.6 µM | > 31.6 µM | > 31.6 µM | > 31.6 µM | > 31.6 µM | > 31.6 µM | > 31.6 µM | > 31.6 µM | > 31.6 µM | > 31.6 µM |
| COc1ccc(-c2nnc(CCCCCCCCc3nnc(-c4ccc(OC)cc4)n3N)n2N)cc1 | > 100 µM | > 100 µM | > 100 µM | > 100 µM | > 100 µM | > 100 µM | > 100 µM | 65.8 µM | > 100 µM | > 100 µM |
| CN1CCN(/C(N)=C(\C#N)C(=O)Nc2ccccc2)CC1 | > 100 µM | > 100 µM | > 100 µM | > 100 µM | > 100 µM | > 100 µM | > 100 µM | > 100 µM | > 100 µM | > 100 µM |
| O=C(NN1C(=O)CSC1c1ccco1)c1ccncc1 (stereo not given) | > 100 µM | > 100 µM | > 100 µM | > 100 µM | > 100 µM | > 100 µM | > 100 µM | > 100 µM | > 100 µM | > 100 µM |
| COc1cc(/C=c2/c3ccccc3n3c2cc(-c2ccccc2)[n+]3C)cc(OC)c1OC | 13.6 µM | 17.1 µM | 15 µM | 6.96 µM | 14.8 µM | 23.2 µM | 3.22 µM | 19.5 µM | 14.6 µM | 6.73 µM |
| C[C@]12CC[C@H](O)CC1=CC[C@@H]1[C@@H]2CC[C@]2(C)c3nc(Cl)ccc3C[C@@H]12 | > 100 µM | > 100 µM | > 100 µM | > 100 µM | > 100 µM | 99.2 µM | > 100 µM | > 67.6 µM | > 100 µM | > 100 µM |
| Cc1cc2c(cc1-c1cc3c(cc1C)C(C(C)C)=C(O)C(=O)/C3=C\Nc1c(C)n(C)n(-c3ccccc3)c1=O)/C(=C/Nc1c(C)n(C)n(-c3ccccc3)c1=O)C(=O)C(O)=C2C(C)C | > 100 µM | > 100 µM | > 100 µM | > 100 µM | > 100 µM | > 100 µM | > 100 µM | > 100 µM | > 100 µM | > 100 µM |
| CC1=Nc2c(C#N)ncn2N=C(C)C1 | > 100 µM | > 100 µM | > 100 µM | > 100 µM | > 100 µM | > 100 µM | > 100 µM | > 100 µM | > 100 µM | > 100 µM |
| CC(C)(C)OC(=O)N1Cc2cc(O)ccc2C[C@H]1C(=O)O | > 100 µM | > 100 µM | > 100 µM | > 100 µM | > 100 µM | > 100 µM | > 100 µM | > 100 µM | > 100 µM | > 100 µM |
| S=c1nc2sc3c(c2c(Nc2ccc(Br)cc2)[nH]1)CCN(N1CCc2c(sc4nc(=S)[nH]c(Nc5ccc(Br)cc5)c24)C1)C3 | 19 µM | > 50 µM | > 50 µM | > 50 µM | > 50 µM | > 50 µM | > 50 µM | > 50 µM | > 50 µM | > 50 µM |
| COc1ccc2oc(=Nc3ccc(F)cc3)c(C(N)=O)cc2c1 | > 100 µM | > 100 µM | > 100 µM | > 100 µM | > 100 µM | 52.1 µM | > 100 µM | > 100 µM | > 100 µM | > 100 µM |
| Clc1cc(OCC23CC4CC(CC(C4)C2)C3)nc(OCC23CC4CC(CC(C4)C2)C3)n1 | > 100 µM | > 100 µM | > 100 µM | > 100 µM | > 100 µM | > 100 µM | > 100 µM | > 100 µM | > 100 µM | > 100 µM |
| O=C(CCc1ccc(O)c(O)c1)NCCc1ccc(O)c(O)c1 | 31 µM | > 100 µM | > 100 µM | > 100 µM | > 100 µM | > 100 µM | > 100 µM | > 100 µM | > 100 µM | > 100 µM |
| Cc1nc2c(Cl)cc(Cl)cc2c(Cl)c1CCCl | > 100 µM | > 100 µM | > 100 µM | > 100 µM | > 100 µM | > 100 µM | > 100 µM | > 100 µM | > 100 µM | > 100 µM |
